Experiments:
Experiment in all cases: relative viability (nuclei count vs DMSO), 5 days (fraction); higher = more cells survive
[1] = compound: CC1(COc2ccc3c(c2)ncn3-c2ccc3cccc(N4CCC(N)CC4)c3n2)COC1 [Crenolanib] + COc1cccc2cc(-c3nc([C@H]4CC[C@H](C(=O)O)CC4)n4ncnc(N)c34)[nH]c12 [OSI-027] (partner 0.5 µM)
How it was run: (§1)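 Relative viability equals treated-well nuclei counts divided by vehicle-well nuclei counts. Counts came from 4× images of lung cancer cell lines grown in 1536-well plates for 5 days after pin-tool dosing on the day after seeding. Dosing used one drug alone or a fixed anchor-drug dose plus five library-drug doses (not always all listed) in √10 steps, and values are medians of duplicate plates.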

[2] = compound: CC1(COc2ccc3c(c2)ncn3-c2ccc3cccc(N4CCC(N)CC4)c3n2)COC1 [Crenolanib] + CS(=O)(=O)CCNCc1ccc(-c2ccc3ncnc(Nc4ccc(OCc5cccc(F)c5)c(Cl)c4)c3c2)o1 [Lapatinib] (partner 2 µM)
How it was run: as §1

[3] = compound: CC1(COc2ccc3c(c2)ncn3-c2ccc3cccc(N4CCC(N)CC4)c3n2)COC1 [Crenolanib] + Nc1nc2[nH]cc(CCc3ccc(C(=O)N[C@@H](CCC(=O)O)C(=O)O)cc3)c2c(=O)[nH]1 [Pemetrexed] (partner 0.2 µM)
How it was run: as §1

[4] = compound: CC1(COc2ccc3c(c2)ncn3-c2ccc3cccc(N4CCC(N)CC4)c3n2)COC1 [Crenolanib] + O=C(CCCCCCC(=O)Nc1ccccc1)NO [Vorinostat] (partner 1 µM)
How it was run: as §1

## UMC-11
[1]; first compound 0.01 µM
  relative viability: 0.523
[1]; first compound 0.03162 µM
  relative viability: 0.535
[1]; first compound 0.1 µM
  relative viability: 0.538
[1]; first compound 0.3162 µM
  relative viability: 0.546
[1]; first compound 1 µM
  relative viability: 0.514
[2]; first compound 0.01 µM
  relative viability: 0.955
[2]; first compound 0.03162 µM
  relative viability: 1.04
[2]; first compound 0.1 µM
  relative viability: 0.895
[2]; first compound 0.3162 µM
  relative viability: 0.985
[2]; first compound 1 µM
  relative viability: 0.95
[3]; first compound 0.01 µM
  relative viability: 0.791
[3]; first compound 0.03162 µM
  relative viability: 0.755
[3]; first compound 0.1 µM
  relative viability: 0.738
[3]; first compound 0.3162 µM
  relative viability: 0.832
[3]; first compound 1 µM
  relative viability: 0.741
[4]; first compound 0.01 µM
  relative viability: 0.383
[4]; first compound 0.03162 µM
  relative viability: 0.453
[4]; first compound 0.1 µM
  relative viability: 0.389
[4]; first compound 0.3162 µM
  relative viability: 0.363
[4]; first compound 1 µM
  relative viability: 0.374

Reference: the supplement of paper PMC10307832
